Data from patent US9034825B2, “Treatment of myocardial injury with humanin analogs” (Albert Einstein College of Medicine of Yeshiva University, priority 2007, dated 2015).
Values joined by “and” are separate entries in the source; they are usually repeats but may differ in a detail not shown here. Equal entries are not always repeated.

Legend:
PEPCK mRNA in the liver = assay: Hepatic PEPCK mRNA by qRT-PCR at end of clamp after ICV infusion; type: in vivo, rat; conditions: ICV infusion for 6 h
Description: (§1) Total RNA was extracted following Clontech's protocol. First-stranded cDNA was synthesized from 1 μg of total RNA using Superscript III (Gibco, Gaithersburg, Md.). Hepatic glucose-6-phosphatase (Glc-6-Pase) and phosphoenolpyruvate carboxykinase (PEPCK) mRNA abundance were assessed by qRT-PCR as described previously (Buettner et al., 2005). Quantification of these peptides and their copy number was normalized for GAPDH and 18S to correct for loading irregularities. The data presented are those normalized by GAPDH.

[1] = system: Glc-6-Pase mRNA in the liver; assay: Hepatic Glc-6-Pase mRNA by qRT-PCR at end of clamp after ICV infusion; type: in vivo, rat; conditions: ICV infusion for 6 h
Description: as §1

Sprague-Dawley rats [2] = assay: Intravenous infusion of humanin or analogs during hyperinsulinemic clamp; type: in vivo, rat
Description: To study the acute effects of an infusion of IGFBP-3, two groups of awake, unstressed, chronically catheterized Sprague-Dawley rats (˜300 g) were studied for 300 min (n=3 in each group) under hyperinsulinemic clamp (as previously described). From 120 min the rats received a primed continuous infusion of humanin (0.375 mg/kg/hr) or saline (control) for an additional 2 h. Plasma samples for determination of [3H]glucose and [3H] water specific activities were obtained at 10-min intervals during the basal and clamp periods. Steady state conditions for the plasma glucose concentration and specific activity were achieved within 90 min in all the studies. Plasma samples for determination of HN, insulin and FFA concentrations were collected at 30-min intervals throughout the study. All determinations were also performed on portal vein blood obtained at the end of the experiments. The total amount of blood drawn during the entire study for various assays is ˜3 cc. After separation of plasma (subsequently used for analysis), the red blood cells were reconstituted in saline and infused back into the animal.
To determine if peripheral infusion of the humanin analog colivelin affects insulin action, saline or colivelin (one hundredth of the dose of humanin) was infused intravenously during hyperinsulinemic clamp to two groups of rats that were matched for body weight (˜300 gm), visceral fat (˜3.5 grams), basal glucose (˜135 mg % or 7 mM). Colivelin increased hepatic insulin sensitivity by 33% while peripheral glucose uptake was unchanged (FIG. 14).
(§2) A primed-continuous ICV infusion of HN, F6A-HN (total dose of 20 μg), STAT-3 inhibitor (75 pmol) (Buettner et al. 2006), or aCSF was initiated at t=0 and maintained for the remainder of the experiment (FIG. 15A). Pancreatic insulin-clamp studies or euglycemic-hyperinsulinemic clamps were performed in conscious, unrestrained, catheterized mice for last 120 minutes as described previously (Bahar et al. 2006, Muzumdar et al. 2006). In the intra-venous group, HN, F6A, Colivelin, and HNGF6A were infused intravenously and hyperinsulinemic clamps were performed as described previously (Loeb et al. 2005). Estimation of glucose, glucose fluxes, insulin, FFA were done as described previously (Loeb et al. 2005). HN measurements were performed by an in-house, ELISA utilizing affinity purified humanin antibodies that recognize both human and rat humanin and has a limit of detection of 0.1 ng/ml (Hwang, and Cohen personal communication).

[3] = system: phospho Akt and ACC in muscle; assay: Western blot of skeletal muscle insulin signaling after ICV infusion; type: in vivo, rat; conditions: muscle tissues from ICV-infused rats
Description: (§3) The indicated tissues were homogenized in 20 mM MOPS, 2 mM EGTA, 5 mM EDTA, 30 mM sodium fluoride, 40 mM beta-glycerophosphate, 10 mM sodium pyrophosphate, 2 mM orthovanadate, 0.5% NP-40 and complete protease inhibitor cocktail (Roche, Indianapolis, Ind., USA) and centrifuged at 12,000 g for 15 min and the supernatant was harvested while carefully avoiding the lipid layer on top. Protein concentration was measured with a BCA protein quantification kit (Pierce, Rockford, Ill., USA). Protein extracts were separated on 4-12% NuPAGE (Invitrogen, Carlsbad, Calif., USA) gels and were blotted onto Immobilon FL PVDF (Millipore, Billerica, Mass., USA). […] After three washes in TBS-T and a final wash in TBS the blots were scanned using the LI-COR Odyssey (LI-COR, Lincoln, Nebr., USA) and quantified using Odyssey 2.0 software based on direct fluorescence measurement.
(§4) For acute signaling studies, rats were injected ICV with either aCSF, 20 μg of HN or F6A (dissolved in aCSF) over 5 min, and sacrificed 30 min later. […] Samples were also obtained from these tissues at the end of the clamp and western blot analysis was performed as described previously (Muzumdar et al. 2003) The blots were scanned using the LI-COR Odyssey (LI-COR, Lincoln, Nebr., USA) and quantified using Odyssey 2.0 software based on direct fluorescence measurement. […]

[4] = system: signaling kinases in hypothalamus and liver; assay: Western blot of other signaling in hypothalamus and liver after ICV infusion; type: in vivo, rat; conditions: ICV HN
Description: as §3, §4

3T3L1 adipocytes = assay: Glucose transport in 3T3L1 adipocytes; type: cell-based; conditions: 3T3L1 cells, basal and insulin-stimulated
Excerpt: Using the 3T3L1 adipocyte model, the effects of humanin on insulin action and glucose transport were investigated.

Sprague-Dawley rats [5] = assay: ICV infusion with pancreatic insulin clamp or hyperinsulinemic clamp (Example 5); type: in vivo, rat; conditions: for peripheral glucose infusion rate: ICV, hyperinsulinemic clamp
Description: Studies were conducted with 92 three-month-old male Sprague-Dawley rats (Charles River Laboratories). Rats were housed in individual cages and subjected to a standard light-dark cycle. Rats were prepared for clamps as described in FIG. 15A. Three weeks before the in vivo studies catheters were implanted in the third cerebral ventricle (Muzumdar et al. 2003). One week before clamp experiments, catheters were placed in the right internal jugular vein and left carotid artery (Liu et al. 1998).
as §2

Sprague-Dawley rats [6] = assay: Intravenous infusion of humanin or analogs during hyperinsulinemic clamp; type: in vivo, rat; conditions: IV 0.0375 mg/kg/hr, clamp
[7] = IV during hyperinsulinemic clamp, humanin 0.375 mg/kg/hr, colivelin one hundredth of the dose of humanin

Q: How did the “PEPCK mRNA in the liver, ratio to GAPDH” value (PEPCK mRNA in the liver; end of clamp (Example 2)) turn out when CC[C@H](C)[C@H](NC(=O)[C@H](CCC(=O)O)NC(=O)[C@H](CO)NC(=O)[C@@H](NC(=O)[C@H](CC(C)C)NC(=O)[C@H](CC(C)C)NC(=O)[C@H](CC(C)C)NC(=O)[C@H](CC(C)C)NC(=O)[C@H](CS)NC(=O)[C@H](CO)NC(=O)[C@H](Cc1ccccc1)NC(=O)CNC(=O)[C@H](CCCNC(=N)N)NC(=O)[C@@H]1CCCN1C(=O)[C@H](C)NC(=O)[C@@H](N)CCSC)[C@@H](C)O)C(=O)N[C@@H](CC(=O)O)C(=O)N[C@@H](CC(C)C)C(=O)N1CCC[C@H]1C(=O)N[C@H](C(=O)N[C@@H](CCCCN)C(=O)N[C@@H](CCCNC(=N)N)C(=O)N[C@@H](CCCNC(=N)N)C(=O)N[C@@H](C)C(=O)O)C(C)C [Humanin, maprgfscll lltseidlpv krra] was run?
A: Its value is 12.4 ±2.7.

Q: What about the “expression of G-6Pase in the liver, ratio to GAPDH” value ([1]; end of clamp (Example 2), listed as HN) of the same molecule?
A: Its value is 0.87 ±0.37 and 0.89 ±0.28.

Q: What about the “HGP / hepatic insulin action” value (Sprague-Dawley rats [2]; IV during hyperinsulinemic clamp, HN 0.375 mg/kg/hr, Colivelin 0.00375 mg/kg/hr) of the same molecule?
A: Its value is “trend towards decreased HGP”.

Q: What about the “increase in hepatic insulin sensitivity” value (Sprague-Dawley rats [2]; [7]) of the same molecule?
A: Its value is 80%.

Q: And the peripheral glucose uptake (Sprague-Dawley rats [2]; [7])?
A: Its peripheral glucose uptake is “unchanged”.

Q: And the “levels in rat CSF after peripheral infusion, range” value (Sprague-Dawley rats [2]; peripherally infused humanin)?
A: The value was 0 to 0.04 µg/mL.

Q: What about the “pAKT and acetyl CoA carboxylase in muscle compared to aCSF” value [3] of the same molecule?
A: The value was “significantly increased”.

Q: And the “liver pAKT, PGC-1b, FAS, p38, CREB, ACC vs control groups” value [4]?
A: Its value is “no significant differences”.

Q: What about the “phosphorylation in other signaling kinases in the hypothalamus including AKT” value [4] of the same molecule?
A: The value was “Unchanged levels of phosphorylation”.

Q: And the glucose transport (3T3L1 adipocytes)?
A: The glucose transport was “significantly enhanced basal as well as insulin-stimulated glucose transport”.

Q: What about the hepatic glucose output (Sprague-Dawley rats [5]; ICV HN 0.1 μg/kg/min, basal and high insulin clamp) of the same molecule?
A: The hepatic glucose output was “significant decrease in hepatic glucose output”.

Q: What about the “serum concentrations of HN during ICV infusion” value (Sprague-Dawley rats [5]; ICV infusion) of the same molecule?
A: Its value is “undetectable”.

Q: And the “peripheral glucose infusion rate” value (Sprague-Dawley rats [5])?
A: Its value is “increased”.

Q: And the peripheral insulin action (Sprague-Dawley rats [6])?
A: Its peripheral insulin action is “Neither HN, nor the non-BP3-binding F6AHN (at doses of 0.0375 mg/kg/hr) altered peripheral insulin action”.

Q: Which results are given for “IGFBP-3: non glycosylated hIGFBP-3 (IGF binding protein-3), provided by Celtrix”?
A: PEPCK mRNA in the liver, ratio to GAPDH (PEPCK mRNA in the liver; end of clamp (Example 1)): 3.2 ±0.3; expression of G-6Pase in the liver, ratio to GAPDH ([1]; end of clamp (Example 1)): no changes; glucose transport (3T3L1 adipocytes): inhibited insulin-stimulated glucose transport; peripheral glucose infusion rate (Sprague-Dawley rats [5]): decrease
